{"source": "patent US5391817A", "about": "“Biaryl phospholipase A2 inhibitors” (Bristol-Myers Squibb, priority 1993, dated 1995)", "data": [{"molecular_target": "T1, PLA2 (Homo sapiens, UniProt P14555)", "T1 construct": "The enzyme is isolated from human platelets; from tissue; host or cells: human platelets", "T1 sequence (P14555 21-144)": "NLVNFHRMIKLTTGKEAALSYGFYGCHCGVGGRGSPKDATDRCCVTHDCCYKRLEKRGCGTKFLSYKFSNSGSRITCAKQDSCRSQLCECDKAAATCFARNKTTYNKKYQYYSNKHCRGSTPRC", "experiment": "PLA2 Inhibition Assay (14C-oleate labeled E. coli membrane substrate)", "assay_type": "biochemical", "settings": "100 μM; PLA2 from human platelets; pH 7, 37° C.", "experimental": "The method used is similar to that reported by Franson, et al. [Jesse, R. L. and Franson R. C., Biochim. Biophys. Acta 575: 467-470 (1979); Franson, R. C., Patriarca, P., and Elsback, P., J. Lipid Res. 15: 380-388 (1974)]. The enzyme is isolated from human platelets. The substrate used consists of ^14 C-oleate labeled Escherichia coli membranes. E. coli cells are grown in the presence of ^14 C-oleic acid and then autoclaved to prepare the membranes.\nVarious concentrations of test compounds are preincubated with PLA2 (3.6 mg/mL in a buffer consisting of 25 mM HEPES (pH 7)), 150 mM NaCl, 5.0 mM CaCl2, and 10% DMSO (v/v, test compound solvent) at 37° C. for 7 minutes. The E. coli substrate is then added (0.1 mM phospholipid, 0,005 mCi ^14 C) and the reaction is then incubated at 37° C. for 30 minutes. The reaction is then terminated by the addition of 1.9 mL tetrahydrofuran (THF), and the entire solution is applied to a solid-phase extraction column (aminopropyl resin, Analytichem). The column is rinsed with an additional 1 mL of THF. The free fatty acid product of the reaction is then eluted from the column with 1 mL 2% acetic acid in THF and collected in a scintillation vial. The amount of free fatty acid product is determined by liquid scintillation counting. The amount of inhibition produced by the test compound is calculated by comparing the counts obtained in the presence of the compound to those obtained in its absence (solvent only). Background counts were determined by performing incubations in the absence of enzyme.\nPercent inhibition is determined by the equation: [formula]", "units": {"inhibition at 100 µM": "%"}, "values": [{"smiles": "CCCCCOc1ccc(COc2cccc(C(=O)O)c2-c2ccccc2)cc1OC(C)=O", "note": "[Structure 14f, 2-[(3-acetoxy-4-pentyloxy)phenyl]methoxy-[1,1'-biphenyl]-6-carboxylic acid]", "inhibition at 100 µM": 30}, {"smiles": "CCCCCCCCCCOc1ccc(COc2cccc(C(=O)O)c2-c2ccccc2)cc1", "note": "[Structure 14k, 2-[(4-decyloxy)phenyl]methoxy-[1,1'-biphenyl]-6-carboxylic acid]", "inhibition at 100 µM": 99}, {"smiles": "CCCCCOc1ccc(COc2cccc(/C=C/C(=O)O)c2-c2cccc(C(=O)O)c2)cc1OCCCCC", "note": "[Structure 39c]", "inhibition at 100 µM": 59}, {"smiles": "CC1(C)CCC(C)(C)c2cc(COc3c(C(=O)O)cccc3-c3ccccc3)ccc21", "note": "[Structure 48, 2-[5,6,7,8-tetrahydro-5,5,8,8-tetramethyl-2-naphthalenyl]methoxy-[1,1'-biphenyl]-3-carboxylic acid]", "inhibition at 100 µM": 88}, {"smiles": "CC(C)=CCOc1ccc(COc2cccc(C(=O)O)c2-c2cccc(C(=O)O)c2)cc1OCC=C(C)C", "note": "[Structure 14b, 2-[3,4-bis(3-methyl-2-butenyloxy)phenyl]methoxy-[1,1'-biphenyl]-6,3'-dicarboxylic acid]", "inhibition at 100 µM": 20}, {"smiles": "C/C(=C\\c1cccc(C(=O)O)c1-c1cccc(C(=O)O)c1)c1ccc2c(c1)C(C)(C)CCC2(C)C", "note": "[Structure 11, (E)-[2-(5,6,7,8-tetrahydro-5,5,8,8-tetramethyl-2-naphthalenyl)-1-propenyl]-[1,1'-biphenyl]-6,3'-dicarboxylic acid]", "inhibition at 100 µM": 80}, {"smiles": "CCCCCCCCCCOc1ccc(COc2cccc(C(=O)O)c2-c2cccc(C(=O)O)c2)cc1OCCCCCCCCCC", "note": "[Structure 14a, 2-[(3,4-bisdecyloxy)phenyl]methoxy-[1,1'-biphenyl]-6,3'-dicarboxylic acid]", "inhibition at 100 µM": 99}, {"smiles": "CC1(C)CCC(C)(C)c2cc(COc3ccc(C(=O)O)cc3-c3ccccc3)ccc21", "note": "[Structure 44, 2-[5,6,7,8-tetrahydro-5,5,8,8-tetramethyl-2-naphthalenyl]methoxy-[1,1'-biphenyl]-5-carboxylic acid]", "inhibition at 100 µM": 70}, {"smiles": "CC(C)=CCOc1ccc(COc2cccc(CCC(=O)O)c2-c2cccc(C(=O)O)c2)cc1OCC=C(C)C", "note": "[Structure 37a, 2-[3,4-bis(3-methyl-2-butenyloxy)phenyl]methoxy-3'-carboxy-[1,1'-biphenyl]-6-propanoic acid]", "inhibition at 100 µM": 55}, {"smiles": "CCCCCOc1ccc(COc2cccc(CCC(=O)O)c2-c2cccc(C(=O)O)c2)cc1OCCCCC", "note": "[Structure 37c, 2-[3,4-bis (pentyloxy)phenyl]methoxy-3'-carboxy-[1,1'-biphenyl]-6-propanoic acid]", "inhibition at 100 µM": 59}]}]}
